Measurements: patent EP0062319A1, “3-Methyl-1-(2-(3-naphthyloxy)-ethyl)-2-pyrazolin-5-one for the treatment of the metastasis and growth of tumour cells” (BAYER AG, priority 1981, dated 1982)

Legend:
[1] = system: B-16a-amelanotischen Melanom-Zellen; assay: Metastasis of tail-vein injected B-16a melanoma cells (lung tumour colonies) in mice; assay type: in vivo, C57BL/6J Mäuse; settings: 5 x 10^4 cells i.v., mean ± SEM, n = 6
Description: (§1) Wie bereits weiter oben festgestellt wurde, ist die Metastase […], die durch eine Reihe komplizierter Vorgänge dargestellt wird. Gegenwärtig finden zwei "Modell"-Systeme für die Untersuchung der in vivo-Metastase verbreitete Anwendung. Das erste Modellsystem umfaßt die subkutane Injektion der Tumorzellen in das Tier. Die subkutane Injektion der Tumorzellen und anschließende Entwicklung eines Primärtumors, gefolgt von spontaner Metastase, wird als "volle" Metastase betrachtet. Ein anderes Modellsystem umfaßt die Injektion der Tumorzellen durch die Schwanzvene. In Anbetracht der Komplexität der Metastase gilt die Schwanzvenen-Injektion als künstliches und nur partielles Modellsystem, da es nur die Vorgänge während des letzteren Teils der Metastase wiedergibt. Das Schwanzvenen-Modellsystem gilt jedoch auch als außerordentlich günstig im Hinblick auf eine Standardisierung der Versuchsbedingungen [vgl."Methods in Cancer Research", Kapitel VII, Academic Press, Inc., 1978].
(§2) Als Kontrolltiere wurden (unbehandelte) C57B1/6J-Mäuse nach folgender Arbeitsweise auf volle Metastase untersucht. Zellsuspensionen der B-16 - und 3LL-Karzinom-Zellen, die wie oben unter A und B beschrieben erhalten worden waren, wurden subkutan in die rechte Achselhöhlenregion der männlichen C57BL/6J-Mäuse injiziert (0,66 mm- = 26 gauge -Nadel; 0,2 ml). Injiziert wurden verschiedene Mengen der Zellsuspensionen im Bereich von 1 x 10^5 bis 1 x 10^6 Zellen. Versuche zur partiellen Metastase wurden in der Weise durchgeführt, daß Tumorzellen über die Schwanzvene in die (unbehandelten) Kontroll-Mäuse injiziert wurden. Die Tiere wurden unter identischen Bedingungen der Temperatur, Lichteinwirkungsdauer, Ernährung etc. gehalten. Nach einem Beobachtungszeitraum von 17 bis 30 Tagen wurden die für die volle Metastase und für die partielle Metastase verwendeten Tiere getötet, und die Lungen, Leber, Nieren, Milz und Gehirn-Gewebe wurde entnommen.
(§3) Das entnommene Gewebe wurde in Bouin-Lösung fixiert.
(§4) Die Zahl der metastatischen Knötchen in jedem Organ wurde mit Hilfe eines Bausch-und-Lomb Stereo-Zoom-Mikroskops bestimmt. Die Untersuchung der Kontroll- Mäuse auf metastatische Knötchen ergab bei 100 % der Tiere positive Befunde in bezug auf metastatische Lungentumoren; die Inkubationszeit für die Erzeugung solcher Metastasen betrug für die 3LL-Tumorzellen 17 bis 21 Tage und für die B-16 a -Tumorzellen 23 bis 30 Tage. In Leber, Nieren, Milz oder Gehirn-Gewebe wurden keine sichtbaren Knötchen beobachtet.
3 mg 3-Methyl-1-[2-(2-naphthyloxy)-ethyl]-2-pyrazolin-5-on wurden in 0,6 ml absolutem Ethylalkohol suspendiert. Das suspendierte Pyrazolon wurde durch Einstellen des pH auf 9,5 mit NaOH gelöst. […]

[2] = system: B-16a-amelanotischem Melanom; assay: Spontaneous (full) metastasis of subcutaneously injected B-16a melanoma (lung tumour colonies) in mice; assay type: in vivo, C57BL/6J Mäuse; settings: for Lungen-Tumor-Kolonien B-16a-Zellen: 1,8 x 10^5 cells s.c., killed day 25, mean ± SEM; for Lungen-Tumor-Kolonien B-16a-Zellen (fraction in brackets): bracketed fraction
Description: as §1, §2, §3, §4
Die Wirkung der Verabreichung der Pyrazolon-Verbindung über einen längeren Zeitraum hinweg auf die Zahl der metastatischen Lungen-Kolonien des B-16 a und des Lewis-Lungen-Karzinoms wurde wie nachstehend beschrieben bestimmt.
3 mg 3-Methyl-1-[2-(2-naphthyloxy)-ethyl]-2-pyrazolin-5-on wurden in 0,6 ml Ethylalkohol gelöst, und die Lösung wurde mit konzentrierter Natronlauge auf pH 9,5 eingestellt.
Syngeneischen C57BL/6J Wirts-Mäusen wurde eine Suspension von 1,8 x 10^5 B-16 a -Zellen subkutan injiziert, die wie vorstehend beschrieben hergestellt wurde. Einer anderen Reihe syngeneischer C57BL/6J Wirts-Mäuse wurde eine Suspension von 1 x 10^5 Lewis-Lungen-Karzinom-Zellen, erhalten wie vorstehend beschrieben, subkutan injiziert. […] Die Kontroll-Mäuse und die behandelten Mäuse wurden unter identischen Bedingungen der Temperatur, Lichteinwirkungsdauer, Ernährung etc. gehalten. Die Mäuse, die die B-16 -Tumorzellen injiziert erhalten hatten wurden 25 Tage nach der Injektion der Tumorzellen getötet; die Mäuse, denen die Lewis-Lungen-Karzinom-Zellen injiziert worden waren, wurden 21 Tage nach der Injektion der Tumorzellen getötet.

CC1=NN(CCOc2ccc3ccccc3c2)C(=O)C1 [3-Methyl-1-[2-(2-naphthyloxy)-ethyl]-2-pyrazolin-5-on]
Lungen-Tumor-Kolonien ([1]; 0.02 mg/mouse s.c. daily for 3 days before tumour cell injection, lungs 14 days later): 19.3 ± 7.5
Lungen-Tumor-Kolonien ([1]; 0.08 mg, second line of the table (presumably injected 1 h before the tumour cells)): 65 ± 36
Lungen-Tumor-Kolonien ([1]; 0.08 mg/mouse s.c. daily for 3 days before tumour cell injection, lungs 14 days later): 2.7 ± 1.3
Lungen-Tumor-Kolonien B-16a-Zellen ([2]; 0.01 mg daily s.c., colonies on bilateral lung surface): 1.7 ± 0.7
Lungen-Tumor-Kolonien B-16a-Zellen (fraction in brackets) ([2]; 0.01 mg daily s.c.): 7/12
Lungen-Tumor-Kolonien B-16a-Zellen ([2]; 0.02 mg daily s.c.): 2.5 ± 0.9
Lungen-Tumor-Kolonien B-16a-Zellen (fraction in brackets) ([2]; 0.02 mg daily s.c.): 7/12
Lungen-Tumor-Kolonien B-16a-Zellen ([2]; 0.04 mg daily s.c.): 3.1 ± 0.8
Lungen-Tumor-Kolonien B-16a-Zellen (fraction in brackets) ([2]; 0.04 mg daily s.c.): 8/12
Lungen-Tumor-Kolonien B-16a-Zellen ([2]; 0.08 mg daily s.c.): 1.4 ± 0.8
Lungen-Tumor-Kolonien B-16a-Zellen (fraction in brackets) ([2]; 0.08 mg daily s.c.): 5/12
